According to US11919902B2, “Aryl-bipyridine amine derivatives as phosphatidylinositol phosphate kinase inhibitors” (HiberCell, Inc., priority 2017, dated 2024):
pIC50: −log10 of the molar value.

Columns and labels:
[1] = molecular target: T1, PIP4K2A (full length protein, SignalChem) (Homo sapiens, UniProt P48426); test: Kinase Assay PIP4K2 A (Sprint); ADP-Glo biochemical assay; details: Table 2; compounds listed under IC50 range headings
T1 construct: 4 nM PIP4K2A (full length protein, SignalChem); purchased SignalChem
T1 sequence (P48426 1-406): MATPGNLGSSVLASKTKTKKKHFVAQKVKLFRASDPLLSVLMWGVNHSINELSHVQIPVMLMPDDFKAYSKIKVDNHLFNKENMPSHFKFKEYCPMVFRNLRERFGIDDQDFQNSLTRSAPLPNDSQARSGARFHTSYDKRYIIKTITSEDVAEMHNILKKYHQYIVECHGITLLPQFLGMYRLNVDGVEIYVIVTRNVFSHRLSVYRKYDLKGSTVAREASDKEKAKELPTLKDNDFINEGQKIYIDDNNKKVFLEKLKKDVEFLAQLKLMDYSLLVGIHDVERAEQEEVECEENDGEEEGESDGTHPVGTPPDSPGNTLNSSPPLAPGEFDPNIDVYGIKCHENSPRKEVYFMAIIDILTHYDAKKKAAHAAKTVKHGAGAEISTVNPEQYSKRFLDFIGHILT
Method: Dilution series of the compounds were prepared in DMSO at 100 times the final assay concentration (n1=n0/3 in 10 points). The compounds were further diluted to three times the assay concentration in assay buffer (20 mM MOPS pH 7.2, 25 mM magnesium chloride, 0.005% Tween 20). 6 μL of the diluted compounds were added to a 384 well assay plate followed by 9 μL of a mix consisting of 4 nM PIP4K2A (full length protein, SignalChem) and 100 μM PI(5)P diC8 (Tebu-Bio). Enzyme and compounds were pre-incubated at room temperature for 15 min.
Then 3 μL of a solution containing 60 μM ATP (Promega) in assay buffer was added to the wells containing compound and enzyme and mixing was performed by pipetting several times. The reaction was incubated at room temperature for 1 h. Then 18 μL of ADP-Glo™ Reagent (Promega) was added to stop the kinase reaction and deplete the unconsumed ATP, mixing was performed by pipetting several times. The plate was incubated at room temperature for 40 min before addition of 36 μL of Kinase Detection Reagent (Promega) to convert ADP to ATP and introduce luciferase and luciferin to detect ATP. The reaction was incubated at room temperature for 40 min before the luminescence was measured in a in a Victor 3V 1420 multilabel counter (Perkin Elmer).
Percent inhibition of the compounds as compared to dimethyl sulfoxide treated control samples was calculated. Compound concentration versus percent inhibition were fitted to generate IC50 values.

GST tagged PIP4KtypeIIB = molecular target: T2, GST tagged PIP4KtypeIIB (Homo sapiens, UniProt P78356); test: Trans-FI P kinase assay PIP4K2B (PIP4KtypeIIB inhibition assay); assay type: biochemical; details: Table 4; compounds listed under IC50 range headings; 100 uM GTP, 5 nM PIP4KIIB; read-out: Trans-FI P kinase assays: PIP4K2B IC50
T2 construct: made in house; host or cells: E. coli
T2 sequence (P78356 1-416): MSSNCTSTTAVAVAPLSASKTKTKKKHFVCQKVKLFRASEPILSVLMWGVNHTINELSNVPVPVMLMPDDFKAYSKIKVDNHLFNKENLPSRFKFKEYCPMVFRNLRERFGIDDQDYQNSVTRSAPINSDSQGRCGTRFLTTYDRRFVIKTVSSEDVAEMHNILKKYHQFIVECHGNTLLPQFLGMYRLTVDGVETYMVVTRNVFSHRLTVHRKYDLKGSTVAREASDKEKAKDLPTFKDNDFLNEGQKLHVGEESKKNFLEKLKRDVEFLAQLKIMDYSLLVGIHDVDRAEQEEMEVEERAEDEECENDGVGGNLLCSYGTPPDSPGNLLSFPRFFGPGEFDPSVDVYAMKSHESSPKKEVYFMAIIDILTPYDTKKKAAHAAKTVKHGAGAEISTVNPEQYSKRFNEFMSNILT
Description: GST tagged PIP4KtypeIIA and B enzymes were overexpressed in E. Coli and purified to >80% homogeneity. Phosphatidyl inositol-5-phosphate (PI5P, Cat. #850152, Avanti Polar Lipids Inc.) was used as the lipid substrate and phosphatidyl ethanolamine (DOPE 18:1, Cat. #850725, Avanti Polar Lipids Inc.) was used as the carrier lipid for assays. Ultrapure ATP and GTP was purchased from Bellbrooke Labs. ADP Glo reagents were obtained from Promega. Transcreener FI reagent was obtained from Bellbrooke labs.
1. HEPES buffer mix: 200 mM HEPES pH 7.4, 50 mM MgCl2, 0.05% v/v triton×100
2. HNE buffer: 20 mM HEPES, pH 7.4, 100 mM NaCl, 0.5 mM EGTA
3. H:E buffer: 30 mM HEPES, pH 7.4, 1 mM EGTA
GST-tagged PIP4KtypeIIB (3.4 uL, 2.77 mg/mL) was diluted to 5 mL using HNE buffer to yield 5× enzyme stock (25 nM)
Lipid Preparation: In a 10 mL pyrex glass vial, lug of PI5P and lug of DOPE were suspended in 2.5 mL of HEPES buffer mix and 2.5 mL of H:E buffer. The contents were mixed and sonicated for 3 min to yield a translucent lipid stock.
Compound Preparation: Compounds were stored as 5 mM stocks in neat DMSO as room temperature in glass vials. 5 mM stocks were diluted to 2 mM and then serially diluted (3×) in neat DMSO in 96 well polypropylene plates. From the serially diluted stocks, 3 uL was delivered into 250 uL of 25% DMSO (in water) to generate 5× compound stocks. Typically, the highest compound conc. was 24 uM.
The assay volume was kept at 25 uL. To each well of the reaction plate, 10 uL of lipid stock (1:1 ratio PI5P:DOPE) was delivered. This was followed by the addition of 5 uL of compound in 25% DMSO. Then, to each well, 5 uL of 25 nM (5×) typeIIB enzyme was delivered. The contents were mixed well and incubated for 1 h at 27 C. After 1 h, reaction was initiated by adding 5 uL of 500 uM GTP and the contents were mixed well with a multi-channel pipetteman. The final concentration of the reagents are as follows: 50 mM HEPES, pH 7.3, 10 mM MgCl2, 20 mM NaCl, 0.01% v/v triton-X100, 5% DMSO, 100 uM GTP, 80 uM (2 ug) PI5P, 2 ug DOPE, and 5 nM PIP4KIIB Typically, the highest conc. of compounds was 4.8 uM and the lowest conc. was 0.
After 2 h, the reaction was quenched by adding 25 uL of transcreener FI reagent. The contents were incubated at RT for 1 h and the Fluorescence (Ex: 584 Em: 623) was read using Molecular Devices Paradigm plate reader. […] The blanks were averaged and subtracted from all other wells. Using a calibration curve, RFU was converted to uM GDP (product). IC50 was calculated by plotting the residual activity (expressed as % No inhibitor control) vs. log [Inh. conc.] Table 2 represents PI5P4K activity of compounds (Example No.) of the invention arranged in accordance with the inhibition of PIP4K2 A kinase assay.

| SMILES | pIC50 [1] | pIC50 (GST tagged PIP4KtypeIIB) |
| --- | --- | --- |
| Cc1cccc2[nH]c(CNC(=O)c3cc4c(-c5cncc(-c6ccc(N7CCCC7=O)cc6)c5)ccnc4[nH]3)nc12 [Example 317, N-((4-methyl-1H-benzo[d]imidazol-2-yl)methyl)-4-(5-(4-(2-oxopyrrolidin-1-yl)phenyl)pyridin-3-yl)-1H-pyrrolo[2,3-b]pyridine-2-carboxamide] | > 5.30 | 7.00 to 8.00 |
| Cn1c(CNC(=O)c2cc3c(-c4cncc(-c5ccc(N6CCCC6=O)cc5)c4)ccnc3[nH]2)nc2ccccc21 [Example 321, N-((1-methyl-1H-benzo[d]imidazol-2-yl)methyl)-4-(5-(4-(2-oxopyrrolidin-1-yl)phenyl)pyridin-3-yl)-1H-pyrrolo[2,3-b]pyridine-2-carboxamide] | > 5.30 | 6.00 to 7.00 |
| O=C(NCc1nc2ccccc2[nH]1)c1cc2c(-c3cncc(-c4ccc(N5CCCC5=O)cc4)c3)ccnc2[nH]1 [Example 322, N-((1H-benzo[d]imidazol-2-yl)methyl)-4-(5-(4-(2-oxopyrrolidin-1-yl)phenyl)pyridin-3-yl)-1H-pyrrolo[2,3-b]pyridine-2-carboxamide] | 5.60 to 6.00 | 7.00 to 8.00 |
| Cc1c[nH]c2nccc(-c3cncc(-c4ccc(N5CCCC5=O)cc4)c3)c12 [Example 323, 1-(4-(5-(3-methyl-1H-pyrrolo[2,3-b]pyridin-4-yl)pyridin-3-yl)phenyl)pyrrolidin-2-one] | 5.60 to 6.00 | 6.00 to 7.00 |
| CN1CCn2c(cc3c(-c4cncc(-c5ccc(N6CC(C)(C)CCC6=O)cc5)c4)ccnc32)C1=O [Example 326, 4-(5-(4-(5,5-dimethyl-2-oxopiperidin-1-yl)phenyl)pyridin-3-yl)-7-methyl-8,9-dihydropyrido[3′,2′:4,5]pyrrolo[1,2-a]pyrazin-6(7H)-one] | 5.60 to 6.00 | 6.00 to 7.00 |
| CN1CCn2c(cc3c(-c4cncc(-c5ccc(C(=O)N6CCOCC6)cc5)c4)ccnc32)C1=O [Example 327, 7-methyl-4-(5-(4-(morpholine-4-carbonyl)phenyl)pyridin-3-yl)-8,9-dihydropyrido[3′,2′:4,5]pyrrolo[1,2-a]pyrazin-6(7H)-one] | 5.30 to 5.60 | 6.00 to 7.00 |
| O=C(Nc1cccnc1)c1cc2c(-c3cncc(-c4ccc(N5CCCC5=O)cc4)c3)ccnc2[nH]1 [Example 328, 4-(5-(4-(2-oxopyrrolidin-1-yl)phenyl)pyridin-3-yl)-N-(pyridin-3-yl)-1H-pyrrolo[2,3-b]pyridine-2-carboxamide] | 5.30 to 5.60 | 7.00 to 8.00 |
| O=C(Nc1ccccc1)c1cc2c(-c3cncc(-c4ccc(N5CCCC5=O)cc4)c3)ccnc2[nH]1 [Example 329, 4-(5-(4-(2-oxopyrrolidin-1-yl)phenyl)pyridin-3-yl)-N-phenyl-1H-pyrrolo[2,3-b]pyridine-2-carboxamide] | 5.30 to 5.60 | 7.00 to 8.00 |

Further lines, results first:

| pIC50 [1] | pIC50 (GST tagged PIP4KtypeIIB) | SMILES |
| --- | --- | --- |
| 5.60 to 6.00 | 7.00 to 8.00 | Cc1c[nH]c2nccc(-c3cc(-c4ccc(N5CCCC5=O)cc4)cnc3N)c12 [Example 316, 1-(4-(6-amino-5-(3-methyl-1H-pyrrolo[2,3-b]pyridin-4-yl)pyridin-3-yl)phenyl)pyrrolidin-2-one] |
| 5.60 to 6.00 | 6.00 to 7.00 | Cc1[nH]nc2nccc(-c3cncc(-c4ccc(N5CCCC5=O)cc4)c3)c12 [Example 318, 1-(4-(5-(3-methyl-2H-pyrazolo[3,4-b]pyridin-4-yl)pyridin-3-yl)phenyl)pyrrolidin-2-one] |
| 6.00 to 7.00 | 7.00 to 8.00 | O=C(NCc1nc2ccccc2s1)c1cc2c(-c3cncc(-c4ccc(N5CCCC5=O)cc4)c3)ccnc2[nH]1 [Example 319, N-(benzo[d]thiazol-2-ylmethyl)-4-(5-(4-(2-oxopyrrolidin-1-yl)phenyl)pyridin-3-yl)-1H-pyrrolo[2,3-b]pyridine-2-carboxamide] |
| 5.60 to 6.00 | 6.00 to 7.00 | Cc1ccc2nc(CNC(=O)c3cc4c(-c5cncc(-c6ccc(N7CCCC7=O)cc6)c5)ccnc4[nH]3)[nH]c2c1 [Example 320, N-((6-methyl-1H-benzo[d]imidazol-2-yl)methyl)-4-(5-(4-(2-oxopyrrolidin-1-yl)phenyl)pyridin-3-yl)-1H-pyrrolo[2,3-b]pyridine-2-carboxamide] |
| 6.00 to 7.00 | 7.00 to 8.00 | CCN(C)C(=O)c1ccc(-c2cncc(-c3ccnc4c3cc3n4CCN(C)C3=O)c2)cc1 [Example 324, N-ethyl-N-methyl-4-(5-(7-methyl-6-oxo-6,7,8,9-tetrahydropyrido[3′,2′:4,5]pyrrolo[1,2-a]pyrazin-4-yl)pyridin-3-yl)benzamide] |
| 7.00 to 8.30 | 6.00 to 7.00 | Cc1ccc2c(c1)N(C(=O)c1cc3c(-c4cncc(-c5ccc(N6CCCC6=O)cc5)c4)ccnc3[nH]1)CCO2 [Example 325, 1-(4-(5-(2-(6-methyl-3,4-dihydro-2H-benzo[b][1,4]oxazine-4-carbonyl)-1H-pyrrolo[2,3-b]pyridin-4-yl)pyridin-3-yl)phenyl)pyrrolidin-2-one] |
| 6.00 to 7.00 | 7.00 to 8.00 | O=C(NCc1ncco1)c1cc2c(-c3cncc(-c4ccc(N5CCCC5=O)cc4)c3)ccnc2[nH]1 [Example 330, N-(oxazol-2-ylmethyl)-4-(5-(4-(2-oxopyrrolidin-1-yl)phenyl)pyridin-3-yl)-1H-pyrrolo[2,3-b]pyridine-2-carboxamide] |
| 6.00 to 7.00 | 7.00 to 8.00 | Cc1cc(N2CCn3c(cc4c(-c5cncc(-c6ccc(N7CCCC7=O)cc6)c5)ccnc43)C2=O)nn1C [Example 331, 7-(1,5-dimethyl-1H-pyrazol-3-yl)-4-(5-(4-(2-oxopyrrolidin-1-yl)phenyl)pyridin-3-yl)-8,9-dihydropyrido[3′,2′:4,5]pyrrolo[1,2-a]pyrazin-6(7H)-one] |
